Measurements reported in ChEMBL document CHEMBL5724558, “Image-based profiling of drug vulnerabilities in CRC organoids” (2024).
Where “and” joins values, the source holds several entries; their conditions need not be identical. Identical values can stand only once.

Experiments:
Type in all cases: functional, Homo sapiens
Parameters in all cases: dose or concentration left out as unconfirmed
[1] = test system: Colon cancer organoid; assay: (§1) Image-based profiling of donated chemical probes and chemogenomic kinase set in O09 CRC organoid. Image analysis is performed on the sum area metric, and the data were normalized to the DMSO control. After imaging the organoid viability is measured using the OneGloEX Luciferase Assay System. The normalized viability data and sum area are reported.
[2] = test system: Colon cancer organoid; assay: as §1, with “O21” for “O09”
[3] = test system: Colon cancer organoid; assay: as §1, with “O06” for “O09”

Row | SMILES | Cell Viability ([1]; Replication number 1) | Cell Viability ([1]; Replication number 2) | Cell Viability ([2]; Replication number 1) | Cell Viability ([2]; Replication number 2) | Cell Viability ([3]; Replication number 1) | Cell Viability ([3]; Replication number 2)
1 | Cc1cn(-c2cc(NC(=O)c3ccc4c(c3)CN(c3cncnc3)C[C@@H]4C)cc(C(F)(F)F)c2)cn1 | 138.868% and 108.886% | 120.836% and 109.134% | 90.5152% and 91.8083% | 113.206% and 94.0752% | 59.0694% and 78.9076% | 95.3584% and 115.454%
2 | COc1ccccc1-c1cc(N2CCN(C(=O)OC(C)(C)C)CC2)c(N)nn1 | 86.2709% and 84.3895% | 173.59% and 117.453% | 94.3574% and 85.8263% | 106.056% and 125.119% | 179.264% and 129.02% | 154.723% and 113.755%
3 | Cl.Cl.Cl.c1ccc(N2CCN(Cc3nc4ccccc4[nH]3)CC2)nc1 | 118.127% and 116.353% | 87.0048% and 88.7915% | 123.058% and 103.622% | 81.1139% and 93.8775% | 75.342% and 94.3794% | 106.955% and 116.079%
4 | CC(C)Oc1ccc(-c2nn([C@@H](C)c3oc4ccc(F)cc4c(=O)c3-c3cccc(F)c3)c3ncnc(N)c23)cc1F [UMBRALISIB] | 196.172% and 129.157% | 74.9501% and 109.33% | 111.232% and 144.39% | 124.887% and 154.3% | 88.4125% and 133.76% | 91.2943% and 112.494%
5 | Cl.O=C(O)c1cc(-c2ccc(C3CCNCC3)cc2)c2ccc(-c3ccc(C(F)(F)F)cc3)cc2c1 | 82.2902% and 109.541% | 53.2933% and 84.4568% | 122.525% and 121.681% | 120.065% and 115.738% | 91.1935% and 100.081% | 81.9268% and 87.9385%
6 | CCn1c(-c2nc3cc(C(=O)N4CCCC(N)C4)ccc3n2C)cc2ccccc21.Cl (centres undefined) | 117.35% and 104.328% | 180.446% and 129.427% | 104.488% and 105.813% | 105.345% and 85.3819% | 210.545% and 138.685% | 140.649% and 97.743%
7 | Cc1ccc(C(=O)Nc2cccc(C(F)(F)F)c2)cc1Nc1nc(-c2cccnc2)nc2c1cnn2C | 119.681% and 88.2655% | 229.025% and 116.079% | 58.179% and 60.2091% | 55.1529% and 56.0201% | 111.788% and 111.949% | 93.5249% and 94.6015%
8 | CC(C)NC(=O)N1CC[C@H](NC2=Nc3cc(F)ccc3N(CC(F)F)c3ccc(Cl)cc32)C1 | 65.8757% and 85.8718% | 77.8958% and 74.4882% | 89.5308% and 79.3405% | 112.883% and 89.5415% | 76.3577% and 106.595% | 67.4805% and 91.0899%
9 | CC(=O)c1c(NS(C)(=O)=O)c2cc(-c3ccc(Cl)cc3)c(-c3ccc(Cl)cc3Cl)nc2n(C)c1=O [MRL-CB1-NC] | 160.352% and 102.495% | 132.682% and 100.183% | 126.549% and 100.129% | 108.062% and 94.898% | 116.774% and 92.5059% | 73.5946% and 87.6518%
10 | Cn1c(=O)[nH]c2cc(N3C(=O)c4cccc5c(CCCO)ccc(c45)C3=O)ccc21 | 172.196% and 101.777% | 101.158% and 94.3617% | 119.202% and 111.104% | 123.504% and 100.955% | 78.0892% and 58.7114% | 114.692% and 105.151%
11 | CN(C)C(=O)c1ccc(-c2cc(C(=O)N[C@@H]3CCc4ccccc43)no2)cc1O | 44.4352% and 76.507% | 55.2789% and 66.994% | 107.545% and 128.739% | 101.745% and 90.2148% | 75.5057% and 77.557% | 96.6364% and 86.0329%
12 | C[C@H](NC(=O)c1cnc2n1[C@](C)(Cc1ccc(C#N)cc1)C(=O)N2c1cc(Cl)c(F)c(Cl)c1)C(=O)NC1(c2ccccn2)CC1 [BI 1950] | 132.005% and 114.441% | 125.066% and 107.777% | 97.6765% and 100.712% | 88.7319% and 89.7959% | 114.343% and 119.672% | 141.649% and 119.396%
13 | Cc1sc2c(c1C)C(c1ccc(Cl)cc1)=N[C@@H](CC(=O)NCCCCCCCCNC(=O)COc1cccc3c1C(=O)N(C1CCC(=O)NC1=O)C3=O)c1nnc(C)n1-2 (some centres undefined) | 79.9563% and 42.1947% | 86.5792% and 48.4637% | 41.9399% and 81.7113% | 36.361% and 51.9272% | 4.9545% and 11.7664% | 6.03% and 10.6824%
14 | C[C@H](c1ccc(F)cc1)N(Cc1cccc(C(=O)O)c1)C(=O)c1cnc2ccccc2c1 [PF-05105679] | 96.3652% and 120.892% | 63.8781% and 75.356% | 102.98% and 107.115% | 83.9126% and 93.8775% | 106.225% and 110.304% | 129.169% and 147.587%
15 | COCCc1ccc(-c2c(C)nc3c(N4CCOCC4)ccnn23)cn1 [JNJ-42396302] | 173.111% and 114.826% | 149.141% and 104.184% | 87.7084% and 77.6404% | 105.989% and 98.0422% | 105.08% and 93.5817% | 103.056% and 100.227%
16 | Cc1c(Nc2ccc(S(=O)(=O)N3CCN(C)CC3)cc2F)nc2ccc(-c3cnn(C4CC4)c3)cn2c1=O | 191.117% and 102.241% | 170.931% and 98.6379% | 111.388% and 118.746% | 91.8423% and 96.6587% | 155.776% and 116.215% | 128.897% and 94.1583%
17 | COc1ccccc1S(=O)(=O)Nc1ccc2c(c1)CN(C)C(=O)N2 | 91.3379% and 107.573% | 93.4533% and 109.471% | 64.6421% and 66.4272% | 105.73% and 125.656% | 152.206% and 125.879% | 155.447% and 126.899%
18 | CO[C@@H](C)c1c(Nc2ccc([C@H](N(C)C(=O)C3CCS(=O)(=O)CC3)C(F)(F)F)cc2)cnc2cc(Cl)nn12 [NVS-MALT1] | 78.0421% and 97.349% | 96.1339% and 95.7573% | 116.026% and 99.8545% | 97.0711% and 89.225% | 53.942% and 90.6073% | 65.826% and 102.355%
19 | O=C(NC[C@H](O)CN1CCc2ccccc2C1)c1ccnc(NC2CCC2)c1 | 64.9401% and 74.8841% | 97.6148% and 75.2613% | 82.4125% and 78.1842% | 61.8775% and 72.494% | 27.5023% and 69.1007% | 41.1138% and 71.2161%
